The source of these data is patent US8492414B2, “Antibacterial agents” (Biota Scientific Management Pty Ltd, priority 2007, dated 2013).

≈ marks a conversion by molar mass, not a printed value.

For the assay, the system named is Staphylococcus aureus ATCC29213. The assay can be described thus: Minimum Inhibitory Concentration (MIC) testing, broth microdilution or agar dilution. The format is cell-based. The conditions noted are these: MIC scored A/B/C, read-out: Staphylococcus aureus MICs, Activity. As to the method:
Minimum Inhibitory Concentration (MIC) Testing Compounds of this invention were tested for antimicrobial activity by susceptibility testing in liquid or on solid media. […] Activities were scored as ‘A’ if the MIC was ≦[…] micrograms/ml, ‘B’ if the MIC was 0.25 to 4 micrograms/ml and ‘C’ if the MIC was greater than 4 micrograms/ml.
Background: Dilution methods test growth across graded concentrations, often in twofold steps.
As to `NC(=O)c1c(F)ccc(OCc2nc(-c3ccc(Cl)cc3OCc3ccccc3)ns2)c1F` [Example 6, 3-((3-(2-(Benzyloxy)-4-chlorophenyl)-1,2,4-thiadiazol-5-yl)methoxy)-2,6-difluorobenzamide], the MIC fell in the range of 0.25 to 4 µg/mL (≈ 0.512 to 8.2 µM). Consider `NC(=O)c1c(F)ccc(OCc2nc(-c3ccc(O)cc3)ns2)c1F` [Example 4, 2,6-Difluoro-3-[3-(4-hydroxyphenyl)-[1,2,4]thiadiazol-5-ylmethoxy]-benzamide], for which the MIC was in the range of 0.25 to 4 µg/mL (≈ 0.688 to 11 µM). In the case of `NC(=O)c1c(F)ccc(OCc2nc(-c3ccc(OC(F)(F)F)cc3)ns2)c1F` [Example 3, 2,6-Difluoro-3-[3-(4-trifluoromethoxyphenyl)-[1,2,4]thiadiazol-5-ylmethoxy]-benzamide], the MIC is at most 1.12 µg/mL. For the compound `NC(=O)c1c(F)ccc(OCc2nc(-c3ccc(Cl)cc3)ns2)c1F` [Example 1, 3-[3-(4-Chlorophenyl)-[1,2,4]thiadiazol-5-ylmethoxy]-2,6-difluorobenzamide], the MIC is at most 1.12 µg/mL. `COc1ccc(-c2nsc(COc3ccc(F)c(C(N)=O)c3F)n2)cc1` [Example 2, 2,6-Difluoro-3-[3-(4-methoxyphenyl)-[1,2,4]thiadiazol-5-ylmethoxy]-benzamide]: the MIC is at most 1.12 µg/mL. As to `NC(=O)c1c(F)ccc(OCc2nc(-c3ccc(Cl)cc3O)ns2)c1F` [Example 7, 3-((3-(4-chloro-2-hydroxyphenyl)-1,2,4-thiadiazol-5-yl)methoxy)-2,6-difluorobenzamide], the MIC was at most 1.12 µg/mL.

Regarding `COc1cc(Cl)ccc1-c1nsc(COc2ccc(F)c(C(N)=O)c2F)n1` [Example 5, 3-((3-(4-chloro-2-methoxyphenyl)-1,2,4-thiadiazol-5-yl)methoxy)-2,6-difluorobenzamide], the MIC fell in the range of 0.25 to 4 µg/mL (≈ 0.607 to 9.71 µM).
